Biological target: T1, Heparanase (Homo sapiens, UniProt Q9Y251)
T1 sequence (Q9Y251 whole entry): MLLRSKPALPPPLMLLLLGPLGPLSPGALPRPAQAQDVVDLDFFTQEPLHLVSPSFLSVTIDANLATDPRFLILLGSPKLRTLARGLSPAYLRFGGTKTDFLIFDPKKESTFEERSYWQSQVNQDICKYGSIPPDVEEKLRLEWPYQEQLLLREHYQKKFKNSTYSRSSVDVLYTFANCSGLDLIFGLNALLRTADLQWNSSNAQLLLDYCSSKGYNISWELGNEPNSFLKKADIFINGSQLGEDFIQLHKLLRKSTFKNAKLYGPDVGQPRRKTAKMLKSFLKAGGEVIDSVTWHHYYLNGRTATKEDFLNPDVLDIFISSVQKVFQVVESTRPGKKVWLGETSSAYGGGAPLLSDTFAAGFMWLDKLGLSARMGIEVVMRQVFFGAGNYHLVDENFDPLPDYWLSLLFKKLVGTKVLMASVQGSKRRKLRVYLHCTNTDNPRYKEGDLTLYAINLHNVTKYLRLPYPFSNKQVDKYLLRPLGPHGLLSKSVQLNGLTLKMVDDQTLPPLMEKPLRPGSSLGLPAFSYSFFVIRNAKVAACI
Test: Inhibition of recombinant HPSE (unknown origin) using fondaparinux as substrate incubated for 3 hrs in absence of light by WST1 assay

IC50: 5 nM
SMILES: CC(=O)N[C@H]1[C@@H](O[C@@H](CO)C(O[C@H](O)CO)C(=O)O)O[C@H](CO)[C@@H](O[C@@H]2OC(C(=O)O)[C@@H](O[C@H]3O[C@H](CO)[C@@H](O)[C@H](O)[C@H]3NC(C)=O)[C@H](O)[C@H]2OS(=O)(=O)O)[C@@H]1O (stereo partly specified)
